Assay [1] in a line: Luminescence Cell-Based Dose Confirmation HTS to Identify Activators of 5'UTR Stem-Loop Driven Alpha-Synuclein mRNA Translation in H4 Neuroglioblastoma Cells. [Related pubchem assays: 1829 (Project Summary), 1814 (Primary HTS)]. It counts as functional.
Assay [2] in a line: Luminescence Cell-Based Dose Response HTS to Identify Activators of Luciferase Translation or Activity in H4 […] Cells. [Related pubchem assays: 1829 (Project Summary), 1814 (Primary HTS)]. The class given is functional.
Assay [3] relates to H4. The assay is described as follows: Luminescence Cell-Based Dose Response HTS to Identify Activators of 5'UTR Stem-Loop Driven Prion Protein mRNA Translation in H4 Neuroglioblastoma Cells. [Related pubchem assays: 1829 (Project Summary), 1814 (Primary HTS)]. The class given is functional. Particulars: Homo sapiens.
In assay [4] the target is SWI/SNF-related matrix-associated actin-dependent regulator of chromatin subfamily A member 2 (Homo sapiens, UniProt P51531). Briefly: Luminescence-based cell-based high throughput dose response assay to identify activators of the function of SWI/SNF related, matrix associated, actin dependent regulator of chromatin, subfamily a, member 2 (SMARCA2, BRM). It counts as functional.
Sequence of SWI/SNF-related matrix-associated actin-dependent regulator of chromatin subfamily A member 2 (P51531 whole entry): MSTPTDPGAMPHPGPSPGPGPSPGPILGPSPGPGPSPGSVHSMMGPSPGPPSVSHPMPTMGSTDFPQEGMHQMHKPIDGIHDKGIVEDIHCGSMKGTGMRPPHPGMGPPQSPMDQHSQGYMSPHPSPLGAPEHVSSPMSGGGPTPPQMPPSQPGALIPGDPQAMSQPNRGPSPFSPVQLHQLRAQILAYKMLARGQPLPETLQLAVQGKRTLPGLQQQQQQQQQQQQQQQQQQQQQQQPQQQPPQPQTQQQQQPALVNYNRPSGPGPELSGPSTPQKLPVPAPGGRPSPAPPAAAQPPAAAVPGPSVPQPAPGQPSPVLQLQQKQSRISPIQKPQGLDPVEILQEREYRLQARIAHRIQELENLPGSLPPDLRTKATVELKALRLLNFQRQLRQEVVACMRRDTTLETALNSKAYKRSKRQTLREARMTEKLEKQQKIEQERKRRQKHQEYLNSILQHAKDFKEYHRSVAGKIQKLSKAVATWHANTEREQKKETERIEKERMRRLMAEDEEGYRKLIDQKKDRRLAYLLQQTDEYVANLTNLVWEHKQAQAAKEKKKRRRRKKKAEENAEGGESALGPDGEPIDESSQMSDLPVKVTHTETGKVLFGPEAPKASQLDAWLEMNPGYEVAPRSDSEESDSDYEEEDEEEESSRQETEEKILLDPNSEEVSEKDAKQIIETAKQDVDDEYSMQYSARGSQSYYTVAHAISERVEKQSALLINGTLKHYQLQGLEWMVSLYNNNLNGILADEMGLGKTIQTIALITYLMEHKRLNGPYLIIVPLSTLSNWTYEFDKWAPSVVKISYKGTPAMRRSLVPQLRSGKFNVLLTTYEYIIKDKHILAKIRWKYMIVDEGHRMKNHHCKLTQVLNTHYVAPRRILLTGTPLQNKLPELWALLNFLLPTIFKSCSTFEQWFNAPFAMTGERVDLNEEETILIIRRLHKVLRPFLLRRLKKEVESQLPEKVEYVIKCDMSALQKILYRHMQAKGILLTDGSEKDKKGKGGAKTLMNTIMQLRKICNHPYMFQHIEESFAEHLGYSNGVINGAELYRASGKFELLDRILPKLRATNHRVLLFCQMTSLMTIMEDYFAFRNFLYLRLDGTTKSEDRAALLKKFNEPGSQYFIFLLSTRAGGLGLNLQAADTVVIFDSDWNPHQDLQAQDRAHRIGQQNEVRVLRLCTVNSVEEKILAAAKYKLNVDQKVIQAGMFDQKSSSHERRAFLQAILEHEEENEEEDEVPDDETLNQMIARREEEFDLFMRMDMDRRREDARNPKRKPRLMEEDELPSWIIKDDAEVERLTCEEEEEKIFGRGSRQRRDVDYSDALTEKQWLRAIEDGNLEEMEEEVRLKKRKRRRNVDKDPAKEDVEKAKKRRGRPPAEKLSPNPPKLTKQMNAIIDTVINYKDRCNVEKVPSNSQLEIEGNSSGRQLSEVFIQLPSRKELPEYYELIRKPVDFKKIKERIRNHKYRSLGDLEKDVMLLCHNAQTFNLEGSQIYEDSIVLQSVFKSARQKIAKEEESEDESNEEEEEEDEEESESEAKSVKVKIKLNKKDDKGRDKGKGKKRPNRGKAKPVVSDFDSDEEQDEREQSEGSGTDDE

The nature of assay [5]: Counterscreen for activators of the function of SWI/SNF related, matrix associated, actin dependent regulator of chromatin, subfamily a, member 2 (SMARCA2, BRM): Luminescence-based cell-based high throughput dose response assay to identify non-selective compounds using the VP16 reporter assay. It counts as functional. On the technique in general: Counterscreens check selectivity or assay interference.

Assay [6] has as its target Paired box protein Pax-8 (Homo sapiens, UniProt Q06710). The assay is described as follows: PAX8 transcriptional activity inhibition in RMG-I – RMG-I cells, luciferase, cherry-pick, dose response (AID 687027).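 Also: luciferase reporter driven by Pax8 target thyroperoxidase promoter measured by SteadyGlo luminescence.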 The class given is functional, cell-based.
Assay [7] is described as follows: toxicity toward immortalized ovarian surface epithelium – cell-based, plate reader, dry powder samples, cytotoxicity control for PAX8 inhibitor project, dose response (AID 743045). It counts as functional.
A short description of assay [8]: OVCAR-3 cell viability loss – plate reader, dry powder samples, PAX8 inhibitor project, dose response (AID 743044). The class given is functional, cell-based.
A short description of assay [9]: OVCAR4 cell viability loss – plate reader, dry powder, SA11, cytotoxicity control for PAX8 inhibitor project, dose response (AID 743150). It counts as functional, cell-based. The following applies: OVCAR-4.
The nature of assay [10]: COV434 cell viability loss – plate reader, dry powder, SA7, cytotoxicity control for PAX8 inhibitor project, dose response (AID 743145). It counts as functional, cell-based.
A short description of assay [11]: OV-90 cell viability loss – plate reader, dry powder, SA8, PAX8 inhibitor project, dose response (AID 743149). The class given is functional, cell-based.
The nature of assay [12]: PAX8-dependent cell viability loss – plate reader, dry powder, dose response (AID 743049). The class given is functional, cell-based.
Assay [13] has as its target FAD-linked sulfhydryl oxidase ALR (Homo sapiens, UniProt P55789). Briefly: ALR-catalysed DTT oxidation blockers – biochemical, H2O2 detection, luminescence, cherry-pick, dose response (AID 493248).
In assay [14] the test system is HeLa. The assay is described as follows: ATP-based viability loss in HeLa cells – cell-based, CellTiter-Glo luminescence, cherry-pick samples, cytotoxicity control for MITF activator project, dose response (AID 540259). The class given is functional. Particulars: Homo sapiens. On the technique in general: Cellular ATP, detected with luciferase, serves as a proxy for viable cell number.

For assay [15], the target named is T1, Methionyl-tRNA synthetase, putative (Trypanosoma brucei brucei, UniProt Q38C91).
T1 sequence (Q38C91 whole entry): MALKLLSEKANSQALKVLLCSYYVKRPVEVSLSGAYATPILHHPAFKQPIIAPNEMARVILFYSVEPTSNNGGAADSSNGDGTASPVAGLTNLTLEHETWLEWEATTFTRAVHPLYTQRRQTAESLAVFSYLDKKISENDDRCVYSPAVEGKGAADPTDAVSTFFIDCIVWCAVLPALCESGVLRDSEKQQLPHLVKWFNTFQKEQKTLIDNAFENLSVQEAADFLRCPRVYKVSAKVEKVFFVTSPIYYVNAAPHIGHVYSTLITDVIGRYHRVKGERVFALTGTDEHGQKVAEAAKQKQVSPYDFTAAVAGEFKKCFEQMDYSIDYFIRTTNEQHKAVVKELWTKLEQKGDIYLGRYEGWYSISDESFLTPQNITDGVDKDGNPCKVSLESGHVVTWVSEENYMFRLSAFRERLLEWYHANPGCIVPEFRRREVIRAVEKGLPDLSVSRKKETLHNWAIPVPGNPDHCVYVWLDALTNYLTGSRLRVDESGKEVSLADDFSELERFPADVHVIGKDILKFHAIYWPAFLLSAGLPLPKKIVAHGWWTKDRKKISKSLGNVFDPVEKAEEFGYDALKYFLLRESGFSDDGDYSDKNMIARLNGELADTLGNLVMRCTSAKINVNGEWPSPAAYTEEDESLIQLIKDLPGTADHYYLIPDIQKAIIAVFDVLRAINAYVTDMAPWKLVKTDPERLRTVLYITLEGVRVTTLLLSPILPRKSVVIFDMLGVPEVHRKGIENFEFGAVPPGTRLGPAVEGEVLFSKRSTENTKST
The class given is functional, Trypanosoma brucei brucei strain 927/4 GUTat10.1.

The nature of assay [16]: Counterscreen for inhibitors of Trypanosoma brucei methionyl tRNA synthetase (MetRS): Luminescence-based cell-based high throughput dose response assay to identify compounds that are cytotoxic to Jurkat human T lymphocyte cells. The class given is functional.
For assay [17], the target named is T1, Methionyl-tRNA synthetase, putative. It counts as functional, Trypanosoma brucei brucei strain 927/4 GUTat10.1. This is another data set of the same source.
Assay [18] is described as follows: viability loss in HeLa cells – cytotoxicity control for MgcRacGAP inhibitor project, dose response (AID 624300). The class given is functional.
The target of assay [19] is T2, Rac GTPase-activating protein 1 (Homo sapiens, UniProt Q9H0H5).
T2 sequence (Q9H0H5 whole entry): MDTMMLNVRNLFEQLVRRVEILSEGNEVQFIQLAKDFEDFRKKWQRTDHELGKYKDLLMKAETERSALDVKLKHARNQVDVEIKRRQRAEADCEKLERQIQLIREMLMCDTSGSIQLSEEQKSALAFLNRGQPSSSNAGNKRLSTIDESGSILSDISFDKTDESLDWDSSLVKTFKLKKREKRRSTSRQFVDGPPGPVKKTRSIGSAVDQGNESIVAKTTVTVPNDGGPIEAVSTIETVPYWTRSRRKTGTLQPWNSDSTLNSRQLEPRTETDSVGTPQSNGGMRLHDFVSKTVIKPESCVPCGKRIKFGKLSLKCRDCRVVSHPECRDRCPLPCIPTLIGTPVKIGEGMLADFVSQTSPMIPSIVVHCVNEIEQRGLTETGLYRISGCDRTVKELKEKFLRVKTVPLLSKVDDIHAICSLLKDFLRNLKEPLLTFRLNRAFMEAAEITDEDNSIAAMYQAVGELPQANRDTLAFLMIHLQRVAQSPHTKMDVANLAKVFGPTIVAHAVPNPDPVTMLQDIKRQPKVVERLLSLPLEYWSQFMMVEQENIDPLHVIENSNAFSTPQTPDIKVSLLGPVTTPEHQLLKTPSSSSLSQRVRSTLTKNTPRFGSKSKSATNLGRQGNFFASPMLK
Briefly: blockers of MgcRacGAP-driven Rac1 GTP hydrolysis – biochemical, ADP Hunter fluorescence, primary and confirmatory, confirmation (AID 624330). It counts as functional.

The subject of assay [20] is HEK293. Briefly: viability loss in HEK293T cells – cell-based, ATP luminescence, cherry-pick samples, cytotoxicity control, dose response (AID 687005).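 Also: cells exposed to compound for 48 hours.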 Particulars: Homo sapiens. It counts as functional.
Assay [21] is described as follows: HEK293 Cytotoxicity Assay Measured in Cell-Based System Using Plate Reader - 7071-01_Inhibitor_Dose_CherryPick_Activity_Set2. The class given is functional.

Usually EC50 stands for the midpoint of the concentration-response curve. As a reminder, the AC50 is the concentration at which the activity in the assay is half-maximal. The IC50 is the midpoint of a concentration-inhibition curve. Usually CC50 stands for the concentration giving 50% cytotoxicity.

Activity calls are given as the source filed them.

Sequence of Paired box protein Pax-8 (Q06710 whole entry): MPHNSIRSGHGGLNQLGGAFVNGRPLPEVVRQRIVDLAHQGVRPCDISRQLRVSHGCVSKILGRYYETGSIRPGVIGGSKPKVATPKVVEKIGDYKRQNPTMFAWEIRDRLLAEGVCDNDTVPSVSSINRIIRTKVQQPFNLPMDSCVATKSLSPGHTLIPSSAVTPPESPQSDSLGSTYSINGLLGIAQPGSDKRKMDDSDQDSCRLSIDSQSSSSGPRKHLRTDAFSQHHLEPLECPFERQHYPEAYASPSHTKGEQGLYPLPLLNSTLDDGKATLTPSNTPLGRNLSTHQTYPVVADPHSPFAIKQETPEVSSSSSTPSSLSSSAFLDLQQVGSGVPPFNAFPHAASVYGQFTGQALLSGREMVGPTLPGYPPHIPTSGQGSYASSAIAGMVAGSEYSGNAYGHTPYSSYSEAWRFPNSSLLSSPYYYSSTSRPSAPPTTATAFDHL
Sequence of FAD-linked sulfhydryl oxidase ALR (P55789 whole entry): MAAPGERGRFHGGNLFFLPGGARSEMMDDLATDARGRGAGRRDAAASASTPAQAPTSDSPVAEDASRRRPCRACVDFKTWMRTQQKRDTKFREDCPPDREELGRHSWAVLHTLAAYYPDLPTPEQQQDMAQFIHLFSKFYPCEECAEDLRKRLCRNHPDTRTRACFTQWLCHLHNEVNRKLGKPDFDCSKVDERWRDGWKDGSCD

Take `Nc1cc(C2CCCC2)nn1-c1ccccc1`: the concentration for a half-maximal effect (EC50) in assay [1] is 0.13 µM (active); in assay [2] it was 7.02 µM (active); in assay [3], 6.8 µM (active); in assay [4] it was > 91.2 µM (inactive); in assay [5], > 91.2 µM (inactive).
For the compound `Cc1ccc(-c2csc(NC3OC(=O)c4ccccc43)n2)cc1` (stereo not given), the half-maximal activity concentration (AC50) in assay [6] is 7.58 µM (active); in assay [7], 33.7 µM (active); in assay [8], 28.3 µM (active); in [9], 17.3 µM (active); in assay [10] it was 0.0641 µM (active); in assay [11], 23.1 µM (active). The AC50 in [12] is 13 µM (active).
For the compound `C(=N\Nc1nc2ccccc2[nH]1)/c1c[nH]c2ccccc12`, the half-maximal activity concentration (AC50) in assay [13] is 0.309 µM (active); in assay [14] it was 40 µM (active). Further, the IC50 is 11.7 µM (inactive) in assay [15], 34.8 µM (inactive) in assay [16], 32.2 µM (inactive) in assay [17] and 35.8 µM (active) in assay [19]. Besides, the CC50 in assay [18] is 81.9 µM (active).
As for `C[C@@H]1CCCCO[C@@H](CN(C)S(=O)(=O)c2ccccc2)[C@H](C)CN([C@@H](C)CO)C(=O)c2cc(NC(=O)Nc3ccc(F)cc3)ccc2O1`, the AC50 in assay [20] and in assay [21] was 21.6 µM (active) in each case.
As for `O=C(C[C@H]1CC[C@@H]2[C@H](COC[C@@H](O)CN2C(=O)c2cnccn2)O1)NCc1ccc(Oc2ccccc2)cc1`, the half-maximal activity concentration (AC50) in [20] and in assay [21] was 35.7 µM (active) each time.
For the compound `COc1ccc(/N=C/c2nc(-c3ccco3)oc2O)cc1`, the EC50 in assay [4] and in assay [5] was > 91.2 µM (inactive) in each case.

The record behind these values is ChEMBL document CHEMBL1201862, “PubChem BioAssay data set” (2004).
